{
  "source": "patent US11497806B2",
  "about": "“Immunization agents and methods of use” (priority 2014, dated 2022)",
  "origin": "cited, not measured here",
  "key": {"[1]": {"tested_on": "luciferase target gene", "settings": "heat treatment in the presence but not in the absence of mifepristone; FIG. 2"}, "[2]": {"biological_target": "T1, transactivator (Homo sapiens, UniProt P06401)", "T1 construct": "host or cells: rat (in vivo)", "T1 sequence (P06401 640-891, added parts left off)": "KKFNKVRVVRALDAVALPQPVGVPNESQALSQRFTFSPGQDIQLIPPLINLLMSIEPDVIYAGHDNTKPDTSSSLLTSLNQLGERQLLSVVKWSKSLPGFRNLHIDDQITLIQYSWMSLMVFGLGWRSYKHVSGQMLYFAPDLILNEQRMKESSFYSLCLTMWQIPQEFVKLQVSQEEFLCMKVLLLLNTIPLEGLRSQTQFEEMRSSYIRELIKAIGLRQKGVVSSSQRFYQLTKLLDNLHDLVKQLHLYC", "settings": "rats"}},
  "note": "Like-named read-outs stand apart in the source and are kept apart here.",
  "data": [
    {"compound": "CC#C[C@]1(O)CC[C@H]2[C@@H]3CCC4=CC(=O)CCC4=C3[C@@H](c3ccc(N(C)C)cc3)C[C@@]21C", "note": "[mifepristone]", "values": [
      {"measurement": "Target gene expression after heat treatment", "setting": "[1]", "result": "resulted in activation of target gene expression"},
      {"measurement": "Amount reaching an effective concentration", "setting": "[2]; i.p.", "result": 5, "unit": "µg/kg"},
      {"measurement": "Amount reaching an effective concentration", "setting": "[2]; orally", "result": "about 10 μg/kg"}
    ]}
  ]
}
